Assay results published in PubChem BioAssay (NCI).
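1) Cells in 96-well plates. 2) Compound, 48 h, 5 concentrations. 3) Linear interpolation between surrounding doses. 4) Unreached endpoint = highest concentration. TGI marks complete inhibition of growth.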

Columns and labels:
Assay in all cases: NCI-60 cell line screen, 48 h
HOP-62 NSCLC = system: HOP-62 NSCLC
IGROV1 ovarian = system: IGROV1 ovarian
OVCAR-8 ovarian = system: OVCAR-8 ovarian
U251 CNS = system: U251 CNS
CAKI-1 renal = system: CAKI-1 renal
SF-539 CNS = system: SF-539 CNS
KM12 colon = system: KM12 colon
HCC-2998 colon = system: HCC-2998 colon
NCI-H460 lung = system: NCI-H460 lung
SF-295 CNS = system: SF-295 CNS
OVCAR-3 ovarian = system: OVCAR-3 ovarian
HS 578T breast = system: HS 578T breast
MDA-MB-435 = system: MDA-MB-435
HCT-116 colon = system: HCT-116 colon
M14 melanoma = system: M14 melanoma
786-0 renal = system: 786-0 renal
HL-60(TB) leukemia = system: HL-60(TB) leukemia
SF-268 CNS = system: SF-268 CNS
OVCAR-5 ovarian = system: OVCAR-5 ovarian
BT-549 breast = system: BT-549 breast
SNB-75 CNS = system: SNB-75 CNS
HT29 colon = system: HT29 colon
MALME-3M melanoma = system: MALME-3M melanoma
SK-MEL-28 melanoma = system: SK-MEL-28 melanoma
SN12C renal = system: SN12C renal
NCI/ADR-RES ovarian = system: NCI/ADR-RES ovarian
MOLT-4 leukemia = system: MOLT-4 leukemia
SK-MEL-5 melanoma = system: SK-MEL-5 melanoma
K-562 leukemia = system: K-562 leukemia
HOP-92 NSCLC = system: HOP-92 NSCLC
EKVX NSCLC = system: EKVX NSCLC
LOX IMVI melanoma = system: LOX IMVI melanoma
UO-31 renal = system: UO-31 renal
NCI-H226 lung = system: NCI-H226 lung
RXF 393 renal = system: RXF 393 renal
A549 NSCLC = system: A549 NSCLC
OVCAR-4 ovarian = system: OVCAR-4 ovarian
COLO 205 colon = system: COLO 205 colon
ACHN renal = system: ACHN renal
A498 renal = system: A498 renal
MCF7 breast = system: MCF7 breast
TK-10 renal = system: TK-10 renal
DU-145 prostate = system: DU-145 prostate
CCRF-CEM leukemia = system: CCRF-CEM leukemia
PC-3 prostate = system: PC-3 prostate
SK-OV-3 ovarian = system: SK-OV-3 ovarian
SK-MEL-2 melanoma = system: SK-MEL-2 melanoma
SNB-19 CNS = system: SNB-19 CNS
MDA-MB-231 breast = system: MDA-MB-231 breast
RPMI-8226 leukemia = system: RPMI-8226 leukemia
SW-620 colon = system: SW-620 colon
NCI-H23 lung = system: NCI-H23 lung
UACC-257 melanoma = system: UACC-257 melanoma
SR leukemia = system: SR leukemia
T-47D breast = system: T-47D breast
MDA-N = system: MDA-N
UACC-62 melanoma = system: UACC-62 melanoma
HCT-15 colon = system: HCT-15 colon
NCI-H522 lung = system: NCI-H522 lung
M19-MEL melanoma = system: M19-MEL melanoma
HOP-18 NSCLC = system: HOP-18 NSCLC
LXFL 529 NSCLC = system: LXFL 529 NSCLC
DMS 114 small cell lung = system: DMS 114 small cell lung
DMS 273 small cell lung = system: DMS 273 small cell lung
DLD-1 colon = system: DLD-1 colon

CCc1nc(N)nc(N)c1-c1ccc(NCCc2ccccc2)c([N+](=O)[O-])c1
TGI (HOP-62 NSCLC): > 46.9 µM
TGI (IGROV1 ovarian): 47.8 µM
TGI (OVCAR-8 ovarian): 89 µM
TGI (U251 CNS): 47.3 µM
TGI (CAKI-1 renal): > 71.3 µM
TGI (SF-539 CNS): 18 µM
TGI (KM12 colon): > 57 µM
TGI (HCC-2998 colon): 11.3 µM
TGI (NCI-H460 lung): > 53.9 µM
TGI (SF-295 CNS): 32.9 µM
TGI (OVCAR-3 ovarian): 32.2 µM
TGI (HS 578T breast): > 75.4 µM
TGI (MDA-MB-435): > 73 µM
TGI (HCT-116 colon): 36.7 µM
TGI (M14 melanoma): 39.3 µM
TGI (786-0 renal): 17 µM
TGI (HL-60(TB) leukemia): 6.77 µM
TGI (SF-268 CNS): > 62.5 µM
TGI (OVCAR-5 ovarian): > 73.4 µM
TGI (BT-549 breast): 42.9 µM
TGI (SNB-75 CNS): 47.3 µM
TGI (HT29 colon): 22.4 µM
TGI (MALME-3M melanoma): 9.74 µM
TGI (SK-MEL-28 melanoma): 28.2 µM
TGI (SN12C renal): > 71.3 µM
TGI (NCI/ADR-RES ovarian): 53.7 µM
TGI (MOLT-4 leukemia): 33.3 µM
TGI (SK-MEL-5 melanoma): 10.1 µM
TGI (K-562 leukemia): > 36.3 µM
TGI (HOP-92 NSCLC): 35.7 µM
TGI (EKVX NSCLC): 54 µM
TGI (LOX IMVI melanoma): > 100 µM
TGI (UO-31 renal): > 51.4 µM
TGI (NCI-H226 lung): > 69.7 µM
TGI (RXF 393 renal): 40.7 µM
TGI (A549 NSCLC): 21.8 µM
TGI (OVCAR-4 ovarian): 46.2 µM
TGI (COLO 205 colon): 16.9 µM
TGI (ACHN renal): 37 µM
TGI (A498 renal): 43.4 µM
TGI (MCF7 breast): 33.6 µM
TGI (TK-10 renal): > 69.7 µM
TGI (DU-145 prostate): > 53.8 µM
TGI (CCRF-CEM leukemia): > 61.2 µM
TGI (PC-3 prostate): > 71.6 µM
TGI (SK-OV-3 ovarian): > 74.6 µM
TGI (SK-MEL-2 melanoma): 36.7 µM
TGI (SNB-19 CNS): > 63.1 µM
TGI (MDA-MB-231 breast): > 88.9 µM
TGI (RPMI-8226 leukemia): 7.35 µM
TGI (SW-620 colon): > 79.4 µM
TGI (NCI-H23 lung): > 54.1 µM
TGI (UACC-257 melanoma): 26.2 µM
TGI (SR leukemia): 24 µM
TGI (T-47D breast): > 52.8 µM
TGI (MDA-N): > 57.5 µM
TGI (UACC-62 melanoma): 15.8 µM
TGI (HCT-15 colon): > 57.5 µM

O=C1CC(=O)N(CCc2ccccc2)S(=O)(=O)N1CCc1ccccc1
TGI (HOP-62 NSCLC): > 100 µM
TGI (IGROV1 ovarian): 42 µM
TGI (NCI-H522 lung): 37.5 µM
TGI (U251 CNS): 30.5 µM
TGI (CAKI-1 renal): 51.4 µM
TGI (SF-539 CNS): 43.5 µM
TGI (KM12 colon): 39.5 µM
TGI (HCC-2998 colon): > 100 µM
TGI (NCI-H460 lung): > 100 µM
TGI (SF-295 CNS): 35.4 µM
TGI (OVCAR-3 ovarian): 36.8 µM
TGI (HCT-116 colon): 74.5 µM
TGI (M14 melanoma): > 100 µM
TGI (786-0 renal): 30.8 µM
TGI (HL-60(TB) leukemia): 38.3 µM
TGI (M19-MEL melanoma): > 100 µM
TGI (SF-268 CNS): 80.8 µM
TGI (OVCAR-5 ovarian): 64.4 µM
TGI (HOP-18 NSCLC): > 100 µM
TGI (SNB-75 CNS): 84.7 µM
TGI (HT29 colon): 47.5 µM
TGI (MALME-3M melanoma): 79.5 µM
TGI (SK-MEL-28 melanoma): > 100 µM
TGI (SN12C renal): > 100 µM
TGI (MOLT-4 leukemia): 44.2 µM
TGI (SK-MEL-5 melanoma): 44.2 µM
TGI (K-562 leukemia): 58.1 µM
TGI (HOP-92 NSCLC): 32.3 µM
TGI (LXFL 529 NSCLC): 40.7 µM
TGI (LOX IMVI melanoma): 3.72 µM
TGI (DMS 114 small cell lung): 48.6 µM
TGI (UO-31 renal): 40.5 µM
TGI (DMS 273 small cell lung): 43.8 µM
TGI (DLD-1 colon): > 100 µM
TGI (RXF 393 renal): 83.4 µM
TGI (A549 NSCLC): 64.8 µM
TGI (OVCAR-4 ovarian): 44.6 µM
TGI (COLO 205 colon): 44.2 µM
TGI (ACHN renal): > 100 µM
TGI (A498 renal): 34.2 µM
TGI (TK-10 renal): > 100 µM
TGI (CCRF-CEM leukemia): 35 µM
TGI (SK-OV-3 ovarian): 61 µM
TGI (SK-MEL-2 melanoma): 48.3 µM
TGI (SNB-19 CNS): 87.4 µM
TGI (RPMI-8226 leukemia): 52 µM
TGI (SW-620 colon): > 100 µM
TGI (NCI-H23 lung): 69.1 µM
TGI (SR leukemia): 48.2 µM
TGI (UACC-62 melanoma): 77.7 µM
TGI (HCT-15 colon): > 100 µM
